Results reported in article PMC8745263 (International Journal of Molecular Sciences, 2021).

Assay: RP-HPLC mobility of peptide before and after H2O2 oxidation (hydrophilicity)
Format: physicochemical
Details: RP-HPLC/LC-MS, C18 column, H2O/CH3CN with TFA; before and after 3% H2O2 oxidation; Supplementary Figure S1A,B
Description: GDF11[48-64]wt was converted to the variant with oxidized methionines by treatment with 3% H2O2, monitoring the reaction progression by reverse-phase HPLC chromatography (RP-HPLC) and mass spectrometry, using the un-oxidized precursor as control. The occurrence of the peroxide oxidation rendered the peptide more hydrophilic than its unoxidized counterpart, as clearly indicated in Supplementary Figure S1A,B by the shift in the RP-HPLC mobility of GDF11[48-64]ox to shorter retention time (9.97 min) with respect to that of GDF11[48-64]wt (11.41 min).
All protected amino acids, including 7-N-Fmoc-aminocoumarin-4-acetic acid (Fmoc-ACA-OH), Fmoc-Met(O)-OH, the coupling agents (1-[Bis(dimethylamino)methylene]-1H-1,2,3-triazol [4,5-b]pyridinium 3-oxid-hexafluorophosphate (Hexafluorophosphate Azabenzotriazole Tetramethyl Uronium, HATU), diisopropylcarbodiimide (DIC), ethyl cyanohydroxyiminoacetate (OXYMA)) and Fmoc-Rink Amide AM Resin used for peptide synthesis were purchased from IRIS Biotech GmbH (Marktrewitz, DE). Acetonitrile (CH3CN), dimethylformamide (DMF), trifluoroacetic acid (TFA), and methanol (CH3OH) were purchased from ROMIL (Dublin, Ireland). […]
Figure S1. Oxidation reaction of GDF11[48-64]wt with hydrogen peroxide monitored by LC-ESI-TOF-MS (LC-MS) analysis. […] After incubation, the samples were collected and analyzed by LC-MS. […]

| Substance | RP-HPLC retention time (shift to shorter time = more hydrophilic) |
| --- | --- |
| Ac-EYMFMQKYPHTHLVQQA-NH2 [GDF11[48-64]wt, peptide reproducing the 48–64 region of GDF11 protein, acetylated and amidated] | 11.41 min |
| Ac-EYM(ox)FM(ox)QKYPHTHLVQQA-NH2 [GDF11[48-64] wt ox, GDF11[48-64]wt bearing sulphoxide groups on M50 and M52, by 3% H2O2 treatment] | 9.97 min |
